In article PMC5716070 (International Journal of Neuropsychopharmacology, 2017):
Values after ≈ are worked out from the molar mass of the structure shown. Values joined by “and” are separate entries in the source; they are usually repeats but may differ in a detail not shown here. Equal values may be shown once. Read-outs that look alike come from different tables or passages of the source.

Tests used:
[1] = clinical; conditions: human, plasma, po, 60 mg
[2] = test system: SERT; conditions: cited from earlier work
[3] = test system: NET; conditions: cited from earlier work
[4] = clinical dose, ref Nogami et al., 2013

With `CNCC[C@H](Oc1cccc2ccccc12)c1cccs1` [duloxetine] as the compound, how does the concentration at 6 h [1] read?
Its concentration at 6 h is 80.8 ng/mL.

What about the SERT occupancy ([2]; 20 mg, ref Takano et al., 2006) of the same compound?
Its SERT occupancy is 71.3%.

What about the SERT occupancy ([2]; 60 mg, ref Takano et al., 2006) of the same compound?
Its SERT occupancy is 81.8%.

What about the “EC50 for SERT occupancy” value ([2]; ref Abanades et al., 2011) of the same compound?
The value was 0.00262 ± 0.00093 µg/mL.

And the “EC50 for SERT occupancy” value ([2]; ref Takano et al., 2006)?
The value was 0.0037 µg/mL.

What about the SERT occupancy ([2]; single dose 40 mg, ref Takano et al., 2006) of the same compound?
Its SERT occupancy is 80.6% and ~80%.

Which NET occupancy [3, 4] does the source give for `CCN(CC)C(=O)C1(c2ccccc2)CC1CN` (stereo not shown) [milnacipran] here?
The NET occupancy was “low occupancy”.

What about the SERT occupancy [2, 4] of the same compound?
Its SERT occupancy is “low occupancy”.

Which results are given for `CNCCC=C1c2ccccc2CCc2ccccc21` [nortriptyline]?
EC50 (plasma drug concentration inducing 50% NET occupancy) ([3]; chronically administered 75–200 mg, patients with MDD, ref Takano et al., 2014): 0.0798 µg/mL (≈ 0.303 µM); EC50 (plasma drug concentration inducing 50% NET occupancy) ([3]; single low dose (10–75 mg), healthy human volunteers, ref Sekine et al., 2010): 0.0598 µg/mL (≈ 0.227 µM)
